Calls of active or inactive are those of the source. The rule behind the calls is not given here.
Columns and labels:
NCI/ADR-RES [1] = test: Cell cycle arrest in human MCF7/ADR cells assessed as accumulation at G2/M phase at 1 uM after 48 hrs by propidium iodide staining based flow cytometry (reference value: 31.94%); type: functional
MCF7 [2] = test: Cell cycle arrest in human MCF7 cells assessed as accumulation at S-phase at 1 uM after 24 hrs by propidium iodide staining based flow cytometry (reference value: 18.24%); type: functional
MCF7 [3] = test: Cell cycle arrest in human MCF7 cells assessed as accumulation at sub-G1 phase at 1 uM after 24 hrs by propidium iodide staining based flow cytometry (reference value: 1.78%); type: functional
NCI/ADR-RES [4] = test: Cell cycle arrest in human MCF7/ADR cells assessed as accumulation at S-phase at 1 uM after 24 hrs by propidium iodide staining based flow cytometry (reference value: 25.87%); type: functional
MCF7 [5] = test: Cell cycle arrest in human MCF7 cells assessed as accumulation at G0/G1 phase at 0.5 uM after 24 hrs by propidium iodide staining based flow cytometry (reference value: 57.83%); type: functional
[6] = AUC (0 to infinity) in Sprague-Dawley rat at 10 mg/kg, iv administered as single dose by LC-MS/MS analysis; type: ADME, organism-based; set-up: dose 10 mg/kg, route intravenous, time infinity; details: in vivo
MCF7 [7] = test: Cell cycle arrest in human MCF7 cells assessed as accumulation at sub-G1 phase at 1 uM after 48 hrs by propidium iodide staining based flow cytometry (reference value: 0.18%); type: functional
MCF7 [8] = test: Cell cycle arrest in human MCF7 cells assessed as accumulation at S-phase at 0.5 uM after 24 hrs by propidium iodide staining based flow cytometry (reference value: 18.24%); type: functional
[9] = Apparent volume of distribution in Sprague-Dawley rat at 10 mg/kg, iv administered as single dose by LC-MS/MS analysis; type: ADME, organism-based; details: in vivo, read-out: Vz
NCI/ADR-RES [10] = test: Cell cycle arrest in human MCF7/ADR cells assessed as accumulation at S-phase at 1 uM after 48 hrs by propidium iodide staining based flow cytometry (reference value: 29.45%); type: functional
[11] = AUC (0 to t) in Sprague-Dawley rat at 10 mg/kg, iv administered as single dose by LC-MS/MS analysis; type: ADME, organism-based; details: in vivo
[12] = Plasma concentration in Sprague-Dawley rat at 10 mg/kg, iv administered as single dose measured at 0.5 hrs post dosing by LC-MS/MS analysis; type: ADME, organism-based
NCI/ADR-RES [13] = test: Cell cycle arrest in human MCF7/ADR cells assessed as accumulation at S-phase at 0.5 uM after 48 hrs by propidium iodide staining based flow cytometry (reference value: 29.45%); type: functional
NCI/ADR-RES [14] = test: Cell cycle arrest in human MCF7/ADR cells assessed as accumulation at sub-G1 phase at 0.5 uM after 48 hrs by propidium iodide staining based flow cytometry (reference value: 0.25%); type: functional
MCF7 [15] = test: Cell cycle arrest in human MCF7 cells assessed as accumulation at sub-G1 phase at 0.5 uM after 24 hrs by propidium iodide staining based flow cytometry (reference value: 1.78%); type: functional
[16] = Plasma concentration in Sprague-Dawley rat at 10 mg/kg, iv administered as single dose measured at 0.083 hrs post dosing by LC-MS/MS analysis; type: ADME, organism-based
MCF7 [17] = test: Cell cycle arrest in human MCF7 cells assessed as accumulation at G0/G1 phase at 0.5 uM after 48 hrs by propidium iodide staining based flow cytometry (reference value: 57.21%); type: functional
NCI/ADR-RES [18] = test: Cell cycle arrest in human MCF7/ADR cells assessed as accumulation at sub-G1 phase at 1 uM after 48 hrs by propidium iodide staining based flow cytometry (reference value: 0.25%); type: functional
MCF7 [19] = test: Cell cycle arrest in human MCF7 cells assessed as accumulation at G2/M phase at 1 uM after 48 hrs by propidium iodide staining based flow cytometry (reference value: 24.26%); type: functional
[20] = Plasma concentration in Sprague-Dawley rat at 10 mg/kg, iv administered as single dose measured at 0.25 hrs post dosing by LC-MS/MS analysis; type: ADME, organism-based
[21] = Plasma concentration in Sprague-Dawley rat at 10 mg/kg, iv administered as single dose measured at 1 hr post dosing by LC-MS/MS analysis; type: ADME, organism-based
[22] = Selectivity ratio of GI50 for human MCF7 cells to GI50 for human MCF7/ADR cells; type: functional
MCF7 [23] = test: Cell cycle arrest in human MCF7 cells assessed as accumulation at G2/M phase at 1 uM after 24 hrs by propidium iodide staining based flow cytometry (reference value: 22.57%); type: functional
NCI/ADR-RES [24] = test: Cell cycle arrest in human MCF7/ADR cells assessed as accumulation at G2/M phase at 1 uM after 24 hrs by propidium iodide staining based flow cytometry (reference value: 27.75%); type: functional
MCF7 [25] = test: Cell cycle arrest in human MCF7 cells assessed as accumulation at S-phase at 1 uM after 48 hrs by propidium iodide staining based flow cytometry (reference value: 18.39%); type: functional
MCF7 [26] = test: Cell cycle arrest in human MCF7 cells assessed as accumulation at S-phase at 0.5 uM after 48 hrs by propidium iodide staining based flow cytometry (reference value: 18.39%); type: functional
[27] = MRT (0 to infinity) in Sprague-Dawley rat at 10 mg/kg, iv administered as single dose by LC-MS/MS analysis; type: ADME, organism-based; details: in vivo
MCF7 [28] = test: Cell cycle arrest in human MCF7 cells assessed as accumulation at G0/G1 phase at 1 uM after 24 hrs by propidium iodide staining based flow cytometry (reference value: 57.83%); type: functional
NCI/ADR-RES [29] = test: Downregulation of Cyclin-D1 protein expression in human MCF7/ADR cells at 0.05 to 0.1 uM after 24 to 48 hrs by Western blot analysis; type: functional, cell-based
NCI/ADR-RES [30] = test: Cell cycle arrest in human MCF7/ADR cells assessed as accumulation at sub-G1 phase at 1 uM after 24 hrs by propidium iodide staining based flow cytometry (reference value: 1.08%); type: functional
[31] = Apparent terminal half life in Sprague-Dawley rat at 10 mg/kg, iv administered as single dose by LC-MS/MS analysis; type: ADME, organism-based; details: in vivo, read-out: betat1/2(app) (converted)
[32] = Plasma concentration in Sprague-Dawley rat at 10 mg/kg, iv administered as single dose measured at 24 hrs post dosing by LC-MS/MS analysis; type: ADME, organism-based
MDA-MB-231 = test: Antiproliferative activity against human MDA-MB-231 cells after 96 hrs by MTT assay; type: functional; details: MDA-MB-231, 96 h
[33] = Cmax in Sprague-Dawley rat at 10 mg/kg, iv administered as single dose by LC-MS/MS analysis; type: ADME, organism-based; set-up: dose 10 mg/kg, route intravenous; details: in vivo
MCF7 [34] = test: Cell cycle arrest in human MCF7 cells assessed as accumulation at G2/M phase at 0.5 uM after 24 hrs by propidium iodide staining based flow cytometry (reference value: 22.57%); type: functional
NCI/ADR-RES [35] = test: Effect on P-gp protein expression in human MCF7/ADR cells at 0.05 to 0.1 uM after 24 to 48 hrs by Western blot analysis; type: functional, cell-based
[36] = Plasma concentration in Sprague-Dawley rat at 10 mg/kg, iv administered as single dose measured at 8 hrs post dosing by LC-MS/MS analysis; type: ADME, organism-based

## C[C@H]1[C@@H](Oc2ccc(-c3cc(-c4ccccc4)[nH]n3)cc2)O[C@@H]2O[C@@]3(C)CC[C@H]4[C@H](C)CC[C@@H]1[C@@]24OO3
NCI/ADR-RES [1]
  Activity: 23.47%
MCF7 [2]
  Activity: 10.13%
MCF7 [3]
  Activity: 0.56%
NCI/ADR-RES [4]
  Activity: 9.75%
MCF7 [5]
  Activity: 70.95%
[6]
  AUC(0-inf): 2920 ng·h/mL
MCF7 [7]
  Activity: 1.44%
MCF7 [8]
  Activity: 11.95%
[9]
  Vd: 18 L/kg
NCI/ADR-RES [10]
  Activity: 9.72%
[11]
  AUC(0-t): 2910 ng·h/mL
[12]
  concentration at 0.5 h: 583 ng/mL
NCI/ADR-RES [13]
  Activity: 20.41%
NCI/ADR-RES [14]
  Activity: 2.81%
MCF7 [15]
  Activity: 0.44%
[16]
  concentration at 0.083 h: 4460 ng/mL
MCF7 [17]
  Activity: 83.54%
NCI/ADR-RES [18]
  Activity: 10.99%
MCF7 [19]
  Activity: 11.53%
[20]
  concentration at 0.25 h: 1720 ng/mL
[21]
  concentration at 1 h: 436 ng/mL
[22]
  RatioGI50: 11.7
MCF7 [23]
  Activity: 16.98%
NCI/ADR-RES [24]
  Activity: 23.83%
MCF7 [25]
  Activity: 2.14%
MCF7 [26]
  Activity: 3.87%
[27]
  MRT inf: 2.28 h
MCF7 [28]
  Activity: 72.58%
NCI/ADR-RES [29]
  Activity: inactive
NCI/ADR-RES [30]
  Activity: 4.73%
[31]
  half-life: 3.58 h
[32]
  concentration at 24 h: 2.65 ng/mL
MDA-MB-231
  GI50: 0.24 µM
[33]
  Cmax: 4460 ng/mL
MCF7 [34]
  Activity: 16.94%
NCI/ADR-RES [35]
  Activity: inactive
[36]
  concentration at 8 h: 34.1 ng/mL
